In patent publication US11477985B2, “Herbicidal mixtures comprising L-glufosinate or its salt and at least one photosynthesis inhibitor” (BASF SE, priority 2017, dated 2022):

Assays:
Assay type in all cases: in vivo
[1] = system: Setaria viridis; assay: Post emergence treatment, greenhouse pot test, herbicidal activity against SETVI; conditions: scale 0 to 100
Source text: (§1) Synergism can be described as an interaction where the combined effect of two or more compounds is greater than the sum of the individual effects of each of the compounds. The presence of a synergistic effect in terms of percent control, between two mixing partners (X and Y) can be calculated using the Colby equation (Colby, S. R., 1967, Calculating Synergistic and
(§2) When the observed combined control effect is greater than the expected (calculated) combined control effect (E), then the combined effect is synergistic.
(§3) However, the weed control afforded by the compounds, mixtures or compositions is not limited to these species. The analysis of synergism or antagonism between the mixtures or compositions was determined using Colby's equation.
(§4) The culture containers used were plastic flowerpots containing loamy sand with approximately 3.0% of humus as the substrate. The seeds of the test plants were sown separately for each species and/or resistant biotype. For the pre-emergence treatment, the active ingredients, which had been suspended or emulsified in water, were applied directly after sowing by means of finely distributing nozzles. The containers were irrigated gently to promote germination and growth and subsequently covered with transparent plastic hoods until the plants had rooted. This cover caused uniform germination of the test plants, unless this had been impaired by the active ingredients. For the post-emergence treatment, the test plants were first grown to a height of 3 to 15 cm, depending on the plant habit, and only then treated with the active ingredients which had been suspended or emulsified in water. For this purpose, the test plants were either sown directly and grown in the same containers, or they were first grown separately as seedlings and transplanted into the test containers a few days prior to treatment. Depending on the species, the plants were kept at 10-25° C. or 20-35° C., respectively. The test period extended to 20 days after treatment. During this time, the plants were tended, and their response to the individual treatments was evaluated. […]

[2] = system: Avena fatua; assay: Post emergence treatment, greenhouse pot test, herbicidal activity against AVEFA
Source text: as §1, §2, §3, §4

[3] = system: Abutilon theophrasti; assay: Post emergence treatment, greenhouse pot test, herbicidal activity against ABUTH; conditions: scale 0 to 100
Source text: as §1, §2, §3, §4

CP(=O)(O)CC[C@H](N)C(=O)O [L-Glufosinate, (2S)-2-amino-4-[hydroxy(methyl)phosphinoyl]butyric acid]
Herbicidal activity against SETVI, Found ([1]; L-Glufosinate 75 g ai/ha alone): 0
Herbicidal activity against SETVI, Found ([1]; L-Glufosinate 150 g ai/ha alone): 70
Herbicidal activity against AVEFA, Found ([2]; L-Glufosinate 300 g ai/ha alone, scale 0 to 100, mean of two replications): 20
Herbicidal activity against ABUTH, Found ([3]; L-Glufosinate 75 g ai/ha alone): 0

CN(C)C(=O)Nc1ccc(Cl)c(Cl)c1 [Diuron, diuron]
Herbicidal activity against AVEFA, Found ([2]; Diuron 125 g ai/ha alone, scale 0 to 100): 20
Herbicidal activity against AVEFA, Found ([2]; Diuron 250 g ai/ha alone, scale 0 to 100): 30

CN(C)C(=O)Nc1cccc(C(F)(F)F)c1 [Fluometuron, fluometuron]
Herbicidal activity against ABUTH, Found ([3]; Fluometuron 125 g ai/ha alone): 0
Herbicidal activity against ABUTH, Found ([3]; Fluometuron 250 g ai/ha alone): 20

O=C(Nc1ccccc1)Nc1cnns1 [Thidiazuron, thiadizuron]
Herbicidal activity against SETVI, Found ([1]; Thidiazuron 50 g ai/ha alone): 0
